{"source": "paper PMC10272180", "about": "“Ancient medicinal plant rosemary contains a highly efficacious and isoform-selective KCNQ potassium channel opener” (Communications Biology, 2023)", "key": {"[1]": {"molecular_target": "T1, KCNQ2/3 (Homo sapiens, UniProt O43525+O43526)", "T1 construct": "expressed in transfected cells; host or cells: Xenopus laevis oocytes co-injected with cRNAs", "assay": "TEVC of KCNQ2/3 heteromers expressed in Xenopus laevis oocytes", "type": "cell-based", "from_the_text": "(§1) We generated cRNA transcripts encoding human KCNQ1, 2, 3, and 5 (wild-type and mutant) by in vitro transcription using the mMessage mMachine kit (Thermo Fisher Scientific, Waltham, MA, USA) according to manufacturer’s instructions, after vector linearization, from cDNA sub-cloned into expression vectors (pTLNx and pXOOM) incorporating Xenopus laevis β-globin 5’ and 3’ UTRs flanking the coding region to enhance translation and cRNA stability. Mutant KCNQ cDNAs were generated by Genscript (Piscataway, NJ, USA) and cRNAs made as above. We injected defolliculated stage V and VI Xenopus laevis oocytes (Xenoocyte, Dexter, MI, USA) with KCNQ cRNAs (2–10 ng) and incubated the oocytes at 16 °C in ND96 oocyte storage solution containing penicillin and streptomycin, with daily washing, for 2–4 days prior to two-electrode voltage-clamp (TEVC) recording.\nWe placed oocytes in a small-volume oocyte bath (Warner) and viewed them with a dissection microscope for cellular electrophysiology. We sourced chemicals from Sigma-Aldrich (St. Louis, MO, USA) and Combi-Blocks (San Diego, CA, USA). We studied effects of Salvia rosmarinus extracts and of compounds, solubilized directly in bath solution (in mM): 96 NaCl, 4 KCl, 1 MgCl2, 1 CaCl2, 10 HEPES (pH 7.6). We introduced extracts or compounds into the oocyte recording bath by gravity perfusion at a constant flow of 1 ml per minute for 3 min prior to recording. Pipettes were of 1-2 MΩ resistance when filled with 3 M KCl. […] We analyzed data using Clampfit (Molecular Devices) and Graphpad Prism software (GraphPad, San Diego, CA, USA), stating values as mean ± SEM. We plotted raw or normalized tail currents versus prepulse voltage and fitted with a single Boltzmann function:1 g=(A1−A2)/1+exp[V1/2−V/Vs]y+A2 where g is the normalized tail conductance, A1 is the initial value at -∞, A2 is the final value at +∞, V1/2 is the half-maximal voltage of activation and Vs the slope factor. We fitted activation and deactivation kinetics with single exponential functions."}, "[2]": {"molecular_target": "KCNQ3*-G245A (Homo sapiens, UniProt O43525, A315T/G245A)", "assay": "TEVC of mutant KCNQ3*-G245A in oocytes", "type": "cell-based", "conditions": "100 µM", "from_the_text": "as §1\nWe performed TEVC at room temperature using an OC-725C amplifier (Warner Instruments, Hamden, CT, USA) and pClamp10 software (Molecular Devices, Sunnyvale, CA, USA) 2–4 days after cRNA injection. […] We recorded currents in response to voltage pulses between −120 mV and +40 mV at 10 mV intervals from a holding potential of −80 mV, to yield current-voltage relationships and examine activation kinetics. We analyzed data using Clampfit (Molecular Devices) and Graphpad Prism software (GraphPad, San Diego, CA, USA), stating values as mean ± SEM. […]"}, "[3]": {"test_system": "GABAA receptor", "design": "method as in PMID 1378214", "conditions": "rat brain membranes in vitro; cited from earlier work"}, "[4]": {"conditions": "cited from earlier work"}}, "data": [{"smiles": "CC(C)c1cc2c(c(O)c1O)[C@@]1(C(=O)O)CCCC(C)(C)[C@@H]1CC2", "note": "[Carnosic acid, carnosic acid]", "values": [{"measurement": "V0.5 Normalized tail current", "setting": "[1]; 0.1 µM", "result": "-44.63 ± 0.46", "unit": "mV"}, {"measurement": "V0.5 Normalized tail current", "setting": "[1]; 1 µM", "result": "-45.44 ± 0.41", "unit": "mV"}, {"measurement": "V0.5 Normalized tail current", "setting": "[1]; 3 µM", "result": "-46.40 ± 0.45", "unit": "mV"}, {"measurement": "V0.5 Normalized tail current", "setting": "[1]; 10 µM", "result": "-47.94 ± 0.61", "unit": "mV"}, {"measurement": "V0.5 Normalized tail current", "setting": "[1]; 30 µM", "result": "-49.09 ± 0.55", "unit": "mV"}, {"measurement": "V0.5 Normalized tail current", "setting": "[1]; 100 µM", "result": "-49.95 ± 0.65", "unit": "mV"}, {"measurement": "activity across the concentration range tested", "setting": "[1]; 0.1-100 µM", "result": "only weakly active"}, {"measurement": "Slope", "setting": "[2]", "result": "12.79 ± 4.65", "unit": "mV"}, {"measurement": "V0.5 Normalized tail current", "setting": "[2]", "result": "-129.4 ± 1.24", "unit": "mV"}, {"measurement": "effect on binding of [35S]tert-butylbicyclophosphorothionate", "setting": "[3]", "result": "decrease the binding affinity"}, {"measurement": "blood brain barrier crossing", "setting": "[4]", "result": "crosses the blood brain barrier"}]}]}
